From patent US20260184689A1, “PIPERIDINE-SUBSTITUTED BENZOIC ACID COMPOUND, AND PHARMACEUTICAL COMPOSITION AND USE THEREOF” (SHANGHAI YISHENG BIOPHARMACEUTICAL COMPANY LIMITED, priority 2022, published 2026)

Key:
[1] = Pharmacokinetic activity assay in mice; type: in vivo; details: IV 1 mg/kg, PO 10 mg/kg
Method: Experimental objective: The test substance was administered to mice via single-dose intravenous and oral gavage routes, and its plasma concentration was measured to evaluate the pharmacokinetic characteristics in mice.
Experimental animals: C57 mice or other available test mice
IV dose: 1 mg/kg; vehicle: 0.5% DMSO or 0.5% MeOH-5% pharmaceutical grade polyethylene glycol-15 hydroxystearate-PBS
Sample collection: 0.03 mL of blood samples were collected from the saphenous vein in experimental animals by puncture at each time point, and the actual blood collection time was recorded. All blood samples were added to commercially available EDTA-K2 anticoagulant tubes with a specification of 1.5 mL (supplied by Jiangsu Kangjian Medical Apparatus Co., Ltd.). After collection, within half an hour, the blood sample was centrifuged at 4° C., 3000 g for 10 min to aspirate the supernatant plasma, which was put in dry ice immediately, and stored in a refrigerator at −80° C. for LCMS/MS analysis.
Blood sampling points: 5 min, 15 min, 30 min, 1 hour, 2 hours, 4 hours, 6 hours, 8 hours, 12 hours, 20 hours, 24 hours.
Test compounds: positive compound LNP023, the final product of Example 158, the final products (compound 159A and compound 159B) of Example 159, and compound 11 of Example 75.

[2] = test system: LPS-induced complement activation; assay: In vivo efficacy assay of LPS-induced complement activation in mice; details: female C57BL/6J mice, LPS 100 μg intraperitoneal, PO
Method: Experimental objective: To investigate the inhibitory effect of the compounds of the present disclosure on complement activation in mice induced by LPS stimulation.
Experimental animals: Female C57BL/6J mice, 7 to 9 weeks old, weighing between 17 to 23 g.
Experimental procedure: 100 μg of lipopolysaccharide (LPS) in Salmonella typhimurium (Sigma) dissolved in 100 μL of sterile PBS was intraperitoneally injected to induce complement activation in mice. Negative control animals were intraperitoneally injected 100 μL of sterile PBS and administered alone by tube feeding (PO). Positive control animals were intraperitoneally injected LPS and PO drug vehicles (0.5% (w/v) methyl cellulose and 0.5% (v/v) Tween 80).
Sample collection: 0.3 mL of blood samples were collected from the orbital venous plexus. All blood samples were added to commercially available EDTA-K2 anticoagulant tubes with a specification of 1.5 mL. After collection, within half an hour, the blood sample was centrifuged at 4° C., 3000 g for 10 min to aspirate the supernatant plasma, which was put in dry ice immediately, and stored in a refrigerator at −80° C. for Western blot analysis of downstream C3d protein levels after complement activation.
Sample analysis: Mouse plasma (5 μL)+Lysis buffer (27.5 μL)+Loading buffer (12.5 μL)+Reducing buffer (5 μL) were mixed well and incubated at 100° C. for 15 min with a loading volume of 5 μL/well, i.e., a loading volume of plasma of 0.5 μL per well.
Test compounds: positive compound LNPO23, the final product of Example 158, the final products (compound 159A and compound 159B) of Example 159, and compound 11 of Example 75.

[3] = test system: Sheep Anti-Rat Fx1A Serum induced Heymann nephritis; assay: In vivo efficacy assay of passive Heymann nephritis in rats; details: male SD rats, intragastric twice a day for 14 days, 5, 20 and 60 mpk; LNP023 60 mpk
Description: Experimental objective: To investigate the ability of the compounds of the present disclosure to improve renal function of Sheep Anti-Rat Fx1A Serum induced Heymann nephritis in rats, including the evaluation of reducing proteinuria level and improving renal tissue damage.
Experimental animals: Male SD rats, 7 to 10 weeks old, weighing between 200 to 300 g.
Urine was collected from rats on D-2 before administration. On D1, the first day of the experiment, animals in the control group (group 1) were administered 5 mL/kg of Sheep Non-Immune serum via a single tail vein injection; animals in the model and administration groups (groups 2 to 6) were administered 5 mL/kg of Sheep Anti-Rat Fx1A Serum via a single tail vein injection.
The rats were treated by intragastric administration twice a day with an interval of 8 hours and a volume of 10 mL/kg. On D1, 1 hour before modeling, animals in groups 1 and 2 were administered blank vehicle 20% PEG400/10% Solutol/70% water; animals in group 3 were administered LNP023 (60 mpk); animals in groups 4 to 6 were administered different concentrations of synthetic compounds (5 mpk, 20 mpk, and 60 mpk); 8 hours after the first administration, each group was administered again with the same dose and volume as the first administration. From D2 to D14, animals in each group were administered different compounds or vehicles for 14 consecutive days (including the first day) according to the dose, volume, administration method, and frequency on D1.
Urine collection: Urine samples were collected from rats on D-2 before administration, and 2 to 4 hours and 4 to 6 hours after the first administration on D4, D6, D8, D11, and D14 after administration, transferred to EP tubes and stored in a refrigerator at −80° C. to −60° C. for the detection of urine protein and creatinine in rats.
Kidney sample collection: All animals were euthanized with CO2 inhalation anesthesia on Day 15, and bilateral kidneys were collected. The left kidney was cut transversely, and the right kidney was cut longitudinally. Half of the transversely cut kidney (left side) and half of the longitudinally cut kidney (right side) were fixed in formalin (placed in the same EP tube).
4. […] Urine total protein (uTP) in rats was detected without dilution; if exceeding the upper detection limit, it was 10-fold diluted (10 μL of sample+90 μL of saline (0.9% saline)) first (Decrease mode); if still exceeding the upper detection limit after 10-fold dilution, it was 100-fold diluted (2 μL of sample+198 μL of saline (0.9% saline)) (Increase mode). Data were read by the analytical instrument HITACHI LST008AS(P). • (2) Kidney pathological scoring: The degree of drug damage to rat kidneys (paraffin sections) was analyzed by HE staining. […]

Structure (SMILES): CCCC1CCN(C(=O)c2c(OC)cc(C)c3[nH]ccc23)C(c2ccc(C(=O)O)cc2)C1 (single isomer, unassigned) [Compound 159B]
- clearance rate during in vivo metabolism, compared with LNP023 [1]: comparable or superior
- half-life during in vivo metabolism, compared with LNP023 [1]: comparable or superior
- inhibition of LPS-induced complement activation (plasma C3d levels), compared with LNP023 [2]: superior or equivalent
- performance in the kidney disease model through urine and kidney pathology analysis, compared with LNP023 [3]: performed better
